This is an account of results in patent US8802664B2 (Bioproject, priority 2010, dated 2014).

Broadly, the melting point is the temperature, or range, at which the solid turns liquid.

SMILES strings stand for the structures. Counter-ions that a name gives are not always drawn.

`CN1CCC(OC(c2cccc(Oc3ccccc3)c2)c2nc3ccccc3s2)CC1` (stereo not shown) (as salt: oxalate) [Example 28, 2-[(1-methylpiperidin-4-yloxy)(3-phenoxy-phenyl)methyl]benzothiazole]: the melting point stood at 92 °C. The value for `Cc1ccc2sc(C(OC3CCN(C)CC3)c3ccccc3)nc2c1` (stereo not shown) (as salt: oxalate) [Example 29, 5-methyl-2-[(1-methylpiperidin-4-yloxy)phenylmethyl]benzothiazole] was 175 °C; that for `Cc1cc(C(OC2CCN(C)CC2)c2nc3ccccc3s2)ccc1F` (stereo not shown) (as salt: oxalate) [Example 34, 2-[(4-fluoro-3-methylphenyl)(1-methylpiperidin-4-yloxy)methyl]benzothiazole] was 120 °C. Then `Cc1cc(C(NC2CCN(C)CC2)c2nc3ccccc3s2)ccc1F` (stereo not shown) (as salt: oxalate) [Example 35, [benzothiazol-2-yl(4-fluoro-3-methyl-phenyl)methyl](1-methylpiperidin-4-yl)amine], with 160 °C.

In turn, `Cc1ccc(C(NC2CCN(C)CC2)c2nc3ccccc3s2)cc1` (stereo not shown) (as salt: oxalate) [Example 36, (benzothiazol-2-yl-p-tolylmethyl)(1-methylpiperidin-4-yl)amine] had a melting point of 110 °C. Compound `CN1CCC(NC(c2cc3ccccc3o2)c2nc3ccccc3s2)CC1` (stereo not shown) (as salt: oxalate) [Example 37, [(benzofuran-2-yl)(benzothiazol-2-yl)methyl](1-methylpiperidin-4-yl)amine] gave a melting point of 125 °C. The value for `Cc1cc(F)cc(C(OC2CCN(C)CC2)c2nc3ccccc3s2)c1` (stereo not shown) (as salt: oxalate) [Example 38, 2-[(3-fluoro-5-methylphenyl)(1-methylpiperidin-4-yloxy)methyl]benzothiazole] was 170 °C; that for `COc1cc(F)cc(C(OC2CCN(C)CC2)c2nc3ccccc3s2)c1` (stereo not shown) (as salt: oxalate) [Example 40, 2-[(3-fluoro-5-methoxyphenyl)(1-methylpiperidin-4-yloxy)methyl]benzothiazole] was 145 °C. In turn, `CN1CCC(OC(c2cccc(I)c2)c2nc3ccccc3s2)CC1` (stereo not shown) (as salt: oxalate) [Example 41, 2-[(3-iodophenyl)(1-methylpiperidin-4-yloxy)methyl]benzothiazole] gave a melting point of 165 to 170 °C.

On to `COc1cc(F)cc(C(NC2CCN(C)CC2)c2nc3ccccc3s2)c1` (stereo not shown) (as salt: oxalate) [Example 43, [benzothiazol-2-yl(3-fluoro-5-methoxyphenyl)methyl](1-methylpiperidin-4-yl)amine], for which the melting point turned out to be 157 °C. The value for `CN1CCC(OC(c2cccc(OCc3ccccc3)c2)c2nc3ccccc3s2)CC1` (stereo not shown) (as salt: oxalate) [Example 45, 2-[(3-benzyloxyphenyl)(1-methylpiperidin-4-yloxy)methyl]benzothiazole] was 52 °C; that for `CN1CCC(OC(c2ccc3occc3c2)c2nc3ccccc3s2)CC1` (stereo not shown) (as salt: oxalate) [Example 46, 2-[benzofuran-5-yl(1-methylpiperidin-4-yloxy)methyl]benzothiazole] was 153 °C.

As for `CCOc1cccc(C(OC2CCN(C)CC2)c2nc3ccccc3s2)c1` (stereo not shown) (as salt: oxalate) [Example 47, 2-[(3-ethoxyphenyl)(1-methylpiperidin-4-yloxy)methyl]benzothiazole], the melting point is 84 °C. Then `CN1CCC(NC(c2cccc(I)c2)c2nc3ccccc3s2)CC1` (stereo not shown) (as salt: oxalate) [Example 48, [benzothiazol-2-yl(3-iodophenyl)methyl](1-methylpiperidin-4-yl)amine], with 188 to 195 °C; and `CC(C)Oc1cccc(C(OC2CCN(C)CC2)c2nc3ccccc3s2)c1` (stereo not shown) (as salt: oxalate) [Example 55, 2-[(3-isopropoxyphenyl)(1-methylpiperidin-4-yloxy)methyl]benzothiazole], with 68 °C. Then `CCCCOc1cccc(C(NC2CCN(C)CC2)c2nc3ccccc3[nH]2)c1` (stereo not shown) (as salt: oxalate) [Example 69, [(1H-benzimidazol-2-yl)(3-butoxyphenyl)methyl](1-methylpiperidin-4-yl)amine], with 137 °C. Compound `CN1CCC(NC(c2cccc(F)c2)c2nc3ccccc3[nH]2)CC1` (stereo not shown) (as salt: oxalate) [Example 74, [(1H-benzimidazol-2-yl)(3-fluorophenyl)methyl](1-methylpiperidin-4-yl)amine] returned a melting point of 155 °C. The value for `CCCCCCc1cccc(C(NC2CCN(C)CC2)c2nc3ccccc3[nH]2)c1` (stereo not shown) (as salt: oxalate) [Example 76, [(1H-benzimidazol-2-yl)(3-hexylphenyl)methyl](1-methylpiperidin-4-yl)amine] was 115 °C. Then `Cc1cccc(C(NC2CCN(C)CC2)c2nc3ccccc3[nH]2)c1` (stereo not shown) (as salt: oxalate) [Example 84, [(1H-benzimidazol-2-yl)(m-tolyl)methyl](1-methylpiperidin-4-yl)amine], with 132 °C.

Compound `CN1CCC(NC(c2cccc(Oc3ccccc3)c2)c2nc3ccccc3[nH]2)CC1` (stereo not shown) (as salt: oxalate) [Example 85, [(1H-benzimidazol-2-yl)(3-phenoxyphenyl)methyl](1-methylpiperidin-4-yl)amine] displayed a melting point of 144 °C. Then `CC(C)Oc1cccc(C(NC2CCN(C)CC2)c2nc3ccccc3s2)c1` (stereo not shown) (as salt: oxalate) [Example 88, [benzothiazol-2-yl(3-isopropoxyphenyl)methyl](1-methylpiperidin-4-yl)amine], with 96 °C. Then `CCCCOc1cccc(C(NC2CCN(C)CC2)c2nc3ccccc3s2)c1` (stereo not shown) (as salt: oxalate) [Example 91, [benzothiazol-2-yl(3-butoxyphenyl)methyl](1-methylpiperidin-4-yl)amine], with 176 °C; and `CCCCOc1cccc(C(OC2CCN(C)CC2)c2nc3ccccc3s2)c1` (stereo not shown) (as salt: oxalate) [Example 92, 2-[(3-butoxyphenyl)(1-methylpiperidin-4-yloxy)methyl]benzothiazole], with 135 °C. The value for `CN1CCC(NC(c2cccc(OCC3CCCCC3)c2)c2nc3ccccc3s2)CC1` (stereo not shown) (as salt: oxalate) [Example 93, [benzothiazol-2-yl(3-cyclohexylmethoxyphenyl)methyl](1-methylpiperidin-4-yl)amine] was 98 °C; that for `CCCCCOc1cccc(C(NC2CCN(C)CC2)c2nc3ccccc3[nH]2)c1` (stereo not shown) (as salt: oxalate) [Example 95, [(1H-benzimidazol-2-yl)(3-pentyloxyphenyl)methyl](1-methylpiperidin-4-yl)amine] was 128 °C; that for `CN1CCC(NC(c2cccc(-c3ccccc3)c2)c2nc3ccccc3s2)CC1` (stereo not shown) (as salt: oxalate) [Example 102, (benzothiazol-2-ylbiphenyl-3-ylmethyl)(1-methylpiperidin-4-yl)amine] was 112 °C. `CN1CCC(NC(c2cccc(OCc3ccc(F)cc3)c2)c2nc3ccccc3[nH]2)CC1` (stereo not shown) (as salt: oxalate) [Example 103, {(1H-benzimidazol-2-yl)[3-(4-fluorobenzyloxy)phenyl]methyl}(1-methylpiperidin-4-yl)amine] returned a melting point of 140 °C. Then `CN1CCC(NC(c2cccc(SCc3ccccc3)c2)c2nc3ccccc3[nH]2)CC1` (stereo not shown) (as salt: oxalate) [Example 104, [(1H-benzimidazol-2-yl)(3-benzylsulfanylphenyl)methyl](1-methylpiperidin-4-yl)amine], with 127 °C; and `CN1CCC(NC(c2cccc(OCc3cccc(F)c3)c2)c2nc3ccccc3[nH]2)CC1` (stereo not shown) (as salt: oxalate) [Example 105, {(1H-benzimidazol-2-yl)[3-(3-fluorobenzyloxy)phenyl]methyl}(1-methylpiperidin-4-yl)amine], with 116 °C. `CN1CCC(NC(c2cccc(OCCOc3ccccc3)c2)c2nc3ccccc3[nH]2)CC1` (stereo not shown) (as salt: oxalate) [Example 106, {(1H-benzimidazol-2-yl)[3-(2-phenoxyethoxy)phenyl]methyl}(1-methylpiperidin-4-yl)amine] showed a melting point of 140 °C.

`CN1CCC(NC(c2cccc(SCc3ccccc3)c2)c2nc3ccccc3s2)CC1` (stereo not shown) (as salt: oxalate) [Example 107, [benzothiazol-2-yl(3-benzylsulfanylphenyl)methyl](1-methylpiperidin-4-yl)amine] gave a melting point of 50 °C. Then `CC(=O)c1ccc(-c2cccc(C(OC3CCN(C)CC3)c3nc4ccccc4[nH]3)c2)cc1` (stereo not shown) (as salt: oxalate) [Example 108, 1-{3′-[(1H-benzimidazol-2-yl)(1-methylpiperidin-4-yloxy)methyl]biphenyl-4-yl}ethanone], with 115 °C; and `CN1CCC(OC(c2cccc(-c3cccc(F)c3)c2)c2nc3ccccc3[nH]2)CC1` (stereo not shown) (as salt: oxalate) [Example 109, 2-[(3′-fluoro-biphenyl-3-yl)(1-methylpiperidin-4-yloxy)methyl]-1H-benzimidazole], with 120 °C; and `CC(=O)c1cccc(-c2cccc(C(OC3CCN(C)CC3)c3nc4ccccc4[nH]3)c2)c1` (stereo not shown) (as salt: oxalate) [Example 110, 1-{3′-[(1H-benzimidazol-2-yl)(1-methylpiperidin-4-yloxy)methyl]biphenyl-3-yl}ethanone], with 140 °C. `CSc1cccc(C(NC2CCN(C)CC2)c2nc3ccccc3s2)c1` (stereo not shown) (as salt: oxalate) [Example 111, [benzothiazol-2-yl(3-methylsulfanylphenyl)methyl](1-methylpiperidin-4-yl)amine]: the melting point was found to be 85 °C. Then `C=CCOc1cccc(C(NC2CCN(C)CC2)c2nc3ccccc3[nH]2)c1` (stereo not shown) (as salt: oxalate) [Example 112, [(3-allyloxyphenyl)(1H-benzimidazol-2-yl)methyl](1-methylpiperidin-4-yl)amine], with 125 °C; and `CN1CCC(NC(c2cccc(OCc3ccccc3F)c2)c2nc3ccccc3[nH]2)CC1` (stereo not shown) (as salt: oxalate) [Example 113, {(1H-benzimidazol-2-yl)[3-(2-fluorobenzyloxy)phenyl]methyl}(1-methylpiperidin-4-yl)amine], with 118 °C.
